Drawing on patent US8217060B2, “Benzimidazole derivatives useful as TRP M8 receptor modulators” (Janssen Pharmaceutica, NV, priority 2009, dated 2012), this text covers inhibition and IC50 for 22 molecules.

The target of this test is T1, canine TRPM8 (Canis lupus familiaris, UniProt Q1A7N1).
T1 construct: expressed in transfected cells
As to the kind of experiment: In Vitro Canine TRPM8 Functional Assay (icilin-induced intracellular Ca2+ fluorescence, FLIPR/FDSS). The following applies: HEK293 cells stably expressing canine TRPM8; for inhibition at 0.2 µM: 0.2 μM test compound, icilin challenge; for IC50: icilin challenge (~80% maximal response), eight-point dose-response. Format: cell-based. The method, then: The functional activity of representative compounds of the formula (I) of the present invention were measured by measuring changes in intracellular calcium concentration using a Ca^2+-sensitive fluorescent dye. The changes in fluorescent signal were monitored by a fluorescence plate reader, either a FLIPR™ (Molecular Devices) or FDSS (Hamamatsu).
HEK293 cells stably expressing canine TRPM8 were routinely grown as monolayers in Dulbecco's minimum essential medium supplemented with 10% FBS, 2 mM L-glutamine, 100 units/mL penicillin, 100 ug/mL streptomycin and 400 μg/mL G418. Cells were maintained in 5% CO2 at 37° C. At 24 hrs prior to assay, cells were seeded in black wall, clear-base poly-D-lysine coated 384-well plates (BD Biosciences, NJ, USA) at a density of 5,000 cells per well in culture medium and grown overnight in 5% CO2 at 37° C. On assay day, growth media was removed and cells were loaded with Calcium 3 Dye (Molecular Devices) for 35 min at 37° C., under 5% CO2 and then for 25 min at room temperature and atmosphere. Subsequently, cells were tested for agonist-induced increases in intracellular Ca^2+ levels using FLIPR™ or FDSS. Cells were challenged with compounds of the formula (I) (at varying concentrations) and intracellular Ca^2+ was measured for 5 min prior to the addition of icilin to all wells to achieve a final concentration that produces approximately an 80% maximal response.
Basal FI was subtracted prior to normalizing data to percent of maximal response. Curves were generated using the average of quadruplicate wells for each data point, were analyzed using nonlinear regression of either sigmoidal dose response or sigmoidal dose response (variable slope). Finally, the EC50 and IC50 values were calculated with the best-fit dose curve determined by GraphPad Prism

Each structure is given as a SMILES string. Structures can show the parent of a compound that is named as a salt.

T1 sequence (Q1A7N1 1-1104): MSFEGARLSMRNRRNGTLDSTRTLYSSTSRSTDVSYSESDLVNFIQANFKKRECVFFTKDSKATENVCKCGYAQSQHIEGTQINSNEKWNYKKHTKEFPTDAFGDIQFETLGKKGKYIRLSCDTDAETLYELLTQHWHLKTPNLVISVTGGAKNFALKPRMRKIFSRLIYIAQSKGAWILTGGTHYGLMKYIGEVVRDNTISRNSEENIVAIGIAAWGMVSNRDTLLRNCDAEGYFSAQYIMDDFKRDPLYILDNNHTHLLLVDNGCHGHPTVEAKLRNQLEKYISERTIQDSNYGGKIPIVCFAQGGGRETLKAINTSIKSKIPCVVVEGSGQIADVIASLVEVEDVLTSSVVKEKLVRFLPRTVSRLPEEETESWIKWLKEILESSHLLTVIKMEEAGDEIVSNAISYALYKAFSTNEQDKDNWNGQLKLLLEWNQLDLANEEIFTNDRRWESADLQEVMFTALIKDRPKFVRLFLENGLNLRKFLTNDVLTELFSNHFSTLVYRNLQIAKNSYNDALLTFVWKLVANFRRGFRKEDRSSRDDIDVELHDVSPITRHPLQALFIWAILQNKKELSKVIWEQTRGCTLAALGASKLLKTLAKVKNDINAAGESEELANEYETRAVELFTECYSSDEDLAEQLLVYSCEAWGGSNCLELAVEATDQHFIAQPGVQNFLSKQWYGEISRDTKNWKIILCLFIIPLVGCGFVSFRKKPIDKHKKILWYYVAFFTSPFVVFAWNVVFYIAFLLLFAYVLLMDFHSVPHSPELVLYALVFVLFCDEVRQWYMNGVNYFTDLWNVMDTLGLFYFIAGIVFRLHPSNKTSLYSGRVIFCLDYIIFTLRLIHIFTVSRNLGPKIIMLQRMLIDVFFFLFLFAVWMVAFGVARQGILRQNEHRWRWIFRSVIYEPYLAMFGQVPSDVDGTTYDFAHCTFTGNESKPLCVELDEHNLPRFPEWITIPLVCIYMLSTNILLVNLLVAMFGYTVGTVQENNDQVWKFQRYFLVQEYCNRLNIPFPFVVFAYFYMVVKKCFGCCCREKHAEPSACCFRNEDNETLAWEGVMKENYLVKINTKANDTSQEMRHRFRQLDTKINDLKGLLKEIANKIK

As to `FC1(F)CCC(C=Cc2nc3cc(-c4ccccc4Cl)ccc3[nH]2)CC1` [Compound 38, 5-(2-Chloro-phenyl)-2-[2-(4,4-difluoro-cyclohexyl)-vinyl]-1H-benzoimidazole hydrochloride salt], the inhibition (in general, the change of the read-out against control, counted positive when it falls) at 0.2 µM worked out at 101% and the IC50 (commonly the concentration at which inhibition is half-maximal) worked out at 3.5 nM.
For the molecule `Fc1ccccc1-c1ccc2[nH]c(C=CC3CCC(F)(F)CC3)nc2c1` [Compound 39, 2-[2-(4,4-Difluoro-cyclohexyl)-vinyl]-5-(2-fluoro-phenyl)-1H-benzoimidazole hydrochloride salt], the inhibition at 0.2 µM is 101% and 9 nM corresponded to half-maximal inhibition (IC50).
The corresponding values for `COc1cccc(OC)c1-c1ccc2[nH]c(C=CC3CC=C(F)CC3)nc2c1` (stereo not shown) [Compound 40, 5-(2,6-Dimethoxy-phenyl)-2-[2-(4-fluoro-cyclohex-3-enyl)-vinyl]-1H-benzoimidazole hydrochloride salt] are 101% and 2 nM.
As to `COc1cccc(F)c1-c1ccc2[nH]c(C=CC3CC=C(F)CC3)nc2c1` (stereo not shown) [Compound 41, 2-[2-(4-Fluoro-cyclohex-3-enyl)-vinyl]-5-(2-fluoro-6-methoxy-phenyl)-1H-benzoimidazole hydrochloride salt], the inhibition at 0.2 µM was 100% and the IC50 came to 6 nM.
Take `Fc1cccc(C(F)(F)F)c1-c1ccc2[nH]c(C=CC3CCC(F)(F)CC3)nc2c1` [Compound 42, 2-[2-(4,4-Difluoro-cyclohexyl)-vinyl]-5-(2-fluoro-6-trifluoromethyl-phenyl)-1H-benzoimidazole hydrochloride salt]: the inhibition at 0.2 µM was 101% and the 50% inhibitory concentration (IC50) amounted to 3 nM.
For `COc1cccc(OC)c1-c1ccc2[nH]c(C=CC3CCC(F)(F)CC3)nc2c1` [Compound 43, 2-[2-(4,4-Difluoro-cyclohexyl)-vinyl]-5-(2,6-dimethoxy-phenyl)-1H-benzoimidazole hydrochloride salt] the same measures were 100% and 2 nM.
With `COc1cccc(F)c1-c1ccc2[nH]c(C=CC3CCC(F)(F)CC3)nc2c1` [Compound 44, 2-[2-(4,4-Difluoro-cyclohexyl)-vinyl]-5-(2-fluoro-6-methoxy-phenyl)-1H-benzoimidazole hydrochloride salt], the inhibition at 0.2 µM worked out at 101% and the IC50 stood at 3 nM.
For `COc1ccc(F)cc1-c1ccc2[nH]c(C=CC3CCC(F)(F)CC3)nc2c1` [Compound 45, 2-[2-(4,4-Difluoro-cyclohexyl)-vinyl]-5-(5-fluoro-2-methoxy-phenyl)-1H-benzoimidazole hydrochloride salt] the same measures were 101% and 7 nM.
Consider `FC1=CCC(C=Cc2nc3cc(-c4ccccc4C(F)(F)F)cc(C(F)(F)F)c3[nH]2)CC1` (stereo not shown) [Compound 46, 2-[2-(4-Fluoro-cyclohex-3-enyl)-vinyl]-7-trifluoromethyl-5-(2-trifluoromethyl-phenyl)-1H-benzoimidazole hydrochloride salt], for which the inhibition at 0.2 µM was 99% and inhibition was half-maximal at 4 nM (IC50).
For `FC1(F)CCC(/C=C/c2nc3cc(-c4ccccc4C(F)(F)F)cc(C(F)(F)F)c3[nH]2)CC1` [Compound 47, 2-[2-(4,4-Difluoro-cyclohexyl)-vinyl]-7-trifluoromethyl-5-(2-trifluoromethyl-phenyl)-1H-benzoimidazole hydrochloride salt] the same measures were 99% and 6.3 nM.
The corresponding values for `Cc1cc(-c2ccccc2OC(F)(F)F)cc2nc(C=CC3CCCCC3)[nH]c12` [Compound 48, 2-(2-Cyclohexyl-vinyl)-7-methyl-5-(2-trifluoromethoxy-phenyl)-1H-benzoimidazole hydrochloride salt] are 99% and 6 nM.
The corresponding values for `Cc1cc(-c2ccccc2C(F)(F)F)cc2nc(C=CC3CCCCC3)[nH]c12` [Compound 49, 2-(2-Cyclohexyl-vinyl)-7-methyl-5-(2-trifluoromethyl-phenyl)-1H-benzoimidazole hydrochloride salt] are 99% and 3 nM.
For `FC(F)(F)c1ccccc1-c1ccc2[nH]c(/C=C/C3CCSCC3)nc2c1` [Compound 51, (E)-2-[2-(Tetrahydro-thiopyran-4-yl)-vinyl]-5-(2-trifluoromethyl-phenyl)-1H-benzimidazole], the inhibition at 0.2 µM was 95% and the IC50 came to 31 nM.
Turning to `Fc1ccccc1-c1ccc2[nH]c(/C=C/C3CCOCC3)nc2c1` [Compound 52, (E)-5-(2-Fluoro-phenyl)-2-[2-(tetrahydro-pyran-4-yl)-vinyl]-1H-benzimidazole trifluoroacetic acid salt], the inhibition at 0.2 µM worked out at 91% and the IC50 stood at 70 nM.
The corresponding values for `Cc1cc(-c2ccccc2C(F)(F)F)cc2nc(/C=C/C3CCOCC3)[nH]c12` [Compound 53, (E)-7-Methyl-2-[2-(tetrahydro-pyran-4-yl)-vinyl]-5-(2-trifluoromethyl-phenyl)-1H-benzimidazole hydrochloride] are 102% and 8 nM.
On to `FC(F)(F)c1cc(-c2ccc3[nH]c(/C=C/C4CCOCC4)nc3c2)ccn1` [Compound 54, (E)-2-[2-(Tetrahydro-pyran-4-yl)-vinyl]-5-(2-trifluoromethyl-pyridin-4-yl)-1H-benzimidazole hydrochloride], for which the inhibition at 0.2 µM stood at 1%.
`FC(F)(F)c1ncccc1-c1ccc2[nH]c(/C=C/C3CCCCC3)nc2c1` [Compound 56, (E)-2-(2-Cyclohexyl-vinyl)-5-(2-trifluoromethyl-pyridin-3-yl)-1H-benzimidazole hydrochloride]: the inhibition at 0.2 µM is 99% and 11 nM corresponded to half-maximal inhibition (IC50).
Regarding `Fc1cccc(C(F)(F)F)c1-c1ccc2[nH]c(/C=C/C3CCCCC3)nc2c1` [Compound 57, (E)-2-(2-Cyclohexyl-vinyl)-5-(2-fluoro-6-trifluoromethyl-phenyl)-1H-benzimidazole], the inhibition at 0.2 µM was found to be 101% and the IC50 stood at 8 nM.
The corresponding values for `FC(F)(F)c1cccnc1-c1ccc2[nH]c(/C=C/C3CCCCC3)nc2c1` [Compound 60, (E)-2-(2-Cyclohexyl-vinyl)-5-(3-trifluoromethyl-pyridin-2-yl)-1H-benzimidazole] are 92% and 45 nM.
For `Fc1cccc(F)c1-c1ccc2[nH]c(/C=C/C3CCOCC3)nc2c1` [Compound 61, (E)-5-(2,6-Difluoro-phenyl)-2[2-(tetrahydro-pyran-4-yl)-vinyl]-1H-benzoimidazole hydrochloride] the same measures were 97% and 32 nM.
On to `FC(F)(F)c1cccnc1-c1ccc2[nH]c(/C=C/C3CCOCC3)nc2c1` [Compound 62, (E)-2-[2-(Tetrahydro-pyran-4-yl)-vinyl]-5-(3-trifluoromethyl-pyridin-2-yl)-1H-benzoimidazole hydrochloride], for which the inhibition at 0.2 µM turned out to be 92% and the IC50 turned out to be 21 nM.
In the case of `Cc1cc(-c2ccccc2C(F)(F)F)cc2nc(/C=C/C3CCC(C)(C)CC3)[nH]c12` [Compound 63, (E)-2-[2-(4,4-Dimethyl-cyclohexyl)-vinyl]-7-methyl-5-(2-trifluoromethyl-phenyl)-1H-benzoimidazole hydrochloride], the inhibition at 0.2 µM came to 97% and inhibition was half-maximal at 12 nM (IC50).
